This passage reports TGI and GI50 results from PubChem BioAssay (NCI).

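48-hour exposure; five concentrations; linearly interpolated endpoints. GI50 is the concentration that inhibits growth by half. The concentration for full growth arrest is given as TGI.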

For the first test, the system named is KM12 colon. The test can be described thus: NCI-60 cell line screen, 48 h.
In turn, `N=S(c1ccccc1)c1ccccc1[N+](=O)[O-]` (stereo unspecified) showed a TGI of 32.7 µM.

Turning to `O=c1c2c3c(sc2n2c(-c4cc(-c5ccccc5)nn4-c4ccccc4)nnc2n1Cc1ccccc1)CCCC3`, the GI50 is more than 100 µM and the TGI was more than 100 µM.

With `C[C@H]1[C@H](C)CC[C@]2(C(=O)NCCNCCN)CC[C@]3(C)C(=CC[C@@H]4[C@@]5(C)CCC(=O)C(C)(C)[C@@H]5CC[C@]43C)[C@H]12`, the GI50 was 1.85 µM and the TGI turned out to be 3.42 µM.

Molecule `COC1OC(C)C(OCc2ccccc2)C(OS(=O)(=O)c2ccc(C)cc2)C1OS(=O)(=O)c1ccc(C)cc1` (stereo unspecified) gave a TGI of more than 100 µM.

In the case of `Cn1c2ccccc2c2c(=O)c3ccccc3[nH]c21`, the GI50 was 22.1 µM and the TGI was more than 100 µM.

Another test concerns SF-268 CNS. Kind of test: NCI-60 cell line screen, 48 h.
Consider `COc1cccc(/C=C2\CCC(C)(CN(C)C)C2=O)c1` (stereo unspecified), for which the TGI was more than 100 µM.

As to `CCN(CC)CCNC(=O)c1cn2ncnc(Oc3ccc(NC(=O)Nc4ccc(Cl)c(C(F)(F)F)c4)c(F)c3)c2c1C`, the GI50 is 1.92 µM and the TGI was determined as 3.74 µM.

`Cc1cc2c(Br)cc(Br)c(O)c2nc1C(=O)c1ccccc1` displayed a TGI of more than 100 µM.

Regarding `Cn1cc(-c2csc(-c3cn(C)c4ccccc34)n2)c2cnccc21`, the GI50 was 1.92 µM and the TGI worked out at 3.92 µM.

`C=CCC1[C@@H](C(C)(C)C(C(C)=O)C(=O)C(=O)OC)OC(C(C)(C)C)N1C(=O)OC` (stereo partly specified) yielded a TGI of more than 100 µM.

Consider `CCOC(=O)C(=O)Nc1ccccc1C(F)(F)F`, for which the TGI was more than 100 µM.

Consider `CCOC(=O)/C(=C/c1cccc(OC)c1)N(CC)CC`, for which the TGI is more than 100 µM.

For `c1ccc2nc3c(cc4ccccn43)nc2c1`, the GI50 was more than 100 µM and the TGI is more than 100 µM.

With `C=CCOC(=O)CC[N+]1=CCC(c2ccccc2)(c2ccccc2)O1`, the TGI was more than 100 µM.

With `COC(=O)/C(C#N)=C1\CCC(C(=O)OC)N1C` (stereo unspecified), the TGI was more than 100 µM.

Take `c1ccc(Cn2cnc3ccc(-c4nc(-c5ccc6c(c5)ncn6C5CCCCC5)cn5ccnc45)cc32)cc1`: the GI50 was 2.48 µM and the TGI is more than 100 µM.

`CSc1c(C)c(C)nn1-c1ccccc1`: the TGI is more than 100 µM.

`COc1cc2cnc3c4ccccc4ccc3c2cc1OC`: the TGI was more than 100 µM.

Take `Cc1cc(N(CCC#N)CCC#N)ccc1/C=C1N=C(/C=C/c2ccccc2)OC(=O)N\1`: the TGI was more than 100 µM.

The molecule `Cc1cn(C2OC(C)(CO)C(O)C2O)c(=O)[nH]c1=O` (stereo unspecified) showed a TGI of more than 100 µM.

Molecule `CCN(CC)CC(=O)N1CCc2c([nH]c3ccccc23)C1c1cccnc1` (stereo unspecified) came in with a TGI of more than 100 µM.

As to `CCSc1nc(N)c2cn[nH]c2n1`, the GI50 was 25.3 µM and the TGI was 74.1 µM.

Regarding `N=S(c1ccccc1)c1ccccc1[N+](=O)[O-]` (stereo unspecified), the TGI amounted to 42.1 µM.

For the molecule `O=c1c2c3c(sc2n2c(-c4cc(-c5ccccc5)nn4-c4ccccc4)nnc2n1Cc1ccccc1)CCCC3`, the GI50 is more than 100 µM and the TGI was more than 100 µM.

`COC1OC(C)C(OCc2ccccc2)C(OS(=O)(=O)c2ccc(C)cc2)C1OS(=O)(=O)c1ccc(C)cc1` (stereo unspecified): the TGI is more than 100 µM.

As for `Cn1c2ccccc2c2c(=O)c3ccccc3[nH]c21`, the GI50 was 25 µM and the TGI was more than 100 µM.

Another test relates to A549 NSCLC. The test can be described thus: NCI-60 cell line screen, 48 h.
`COc1cccc(/C=C2\CCC(C)(CN(C)C)C2=O)c1` (stereo unspecified) registered a TGI of more than 100 µM.

Turning to `CCN(CC)CCNC(=O)c1cn2ncnc(Oc3ccc(NC(=O)Nc4ccc(Cl)c(C(F)(F)F)c4)c(F)c3)c2c1C`, the GI50 was 1770 nM and the TGI turned out to be 3.44 µM.

Regarding `Cc1cc2c(Br)cc(Br)c(O)c2nc1C(=O)c1ccccc1`, the TGI is more than 100 µM.

For the molecule `Cn1cc(-c2csc(-c3cn(C)c4ccccc34)n2)c2cnccc21`, the GI50 was 2380 nM and the TGI worked out at 5.01 µM.

As for `C=CCC1[C@@H](C(C)(C)C(C(C)=O)C(=O)C(=O)OC)OC(C(C)(C)C)N1C(=O)OC` (stereo partly specified), the TGI was more than 100 µM.

As to `CCOC(=O)C(=O)Nc1ccccc1C(F)(F)F`, the TGI was more than 100 µM.

In the case of `CCOC(=O)/C(=C/c1cccc(OC)c1)N(CC)CC`, the TGI is more than 100 µM.

Consider `Cn1c(/C(C#N)=C/c2ccc3ccccc3c2)cc2ccccc21`, for which the GI50 is 247 nM and the TGI was more than 100 µM.

Take `c1ccc2nc3c(cc4ccccn43)nc2c1`: the GI50 is 77400 nM and the TGI was more than 100 µM.

As to `C=CCOC(=O)CC[N+]1=CCC(c2ccccc2)(c2ccccc2)O1`, the TGI was more than 100 µM.

The molecule `COC(=O)/C(C#N)=C1\CCC(C(=O)OC)N1C` (stereo unspecified) displayed a TGI of more than 100 µM.

As for `c1ccc(Cn2cnc3ccc(-c4nc(-c5ccc6c(c5)ncn6C5CCCCC5)cn5ccnc45)cc32)cc1`, the GI50 was 2330 nM and the TGI worked out at 4.97 µM.

For `CSc1c(C)c(C)nn1-c1ccccc1`, the TGI was more than 100 µM.

`COc1cc2cnc3c4ccccc4ccc3c2cc1OC` displayed a TGI of more than 100 µM.

Consider `Cc1cc(N(CCC#N)CCC#N)ccc1/C=C1N=C(/C=C/c2ccccc2)OC(=O)N\1`, for which the TGI was more than 100 µM.

With `Cc1cn(C2OC(C)(CO)C(O)C2O)c(=O)[nH]c1=O` (stereo unspecified), the TGI is more than 100 µM.

The molecule `CCN(CC)CC(=O)N1CCc2c([nH]c3ccccc23)C1c1cccnc1` (stereo unspecified) displayed a TGI of more than 100 µM.

On to `CCSc1nc(N)c2cn[nH]c2n1`, for which the GI50 was 44600 nM and the TGI was more than 100 µM.

Consider `N=S(c1ccccc1)c1ccccc1[N+](=O)[O-]` (stereo unspecified), for which the TGI was found to be 32.1 µM.

Regarding `O=c1c2c3c(sc2n2c(-c4cc(-c5ccccc5)nn4-c4ccccc4)nnc2n1Cc1ccccc1)CCCC3`, the GI50 was more than 100000 nM and the TGI is more than 100 µM.

Molecule `COC1OC(C)C(OCc2ccccc2)C(OS(=O)(=O)c2ccc(C)cc2)C1OS(=O)(=O)c1ccc(C)cc1` (stereo unspecified) showed a TGI of more than 100 µM.

Consider `Cn1c2ccccc2c2c(=O)c3ccccc3[nH]c21`, for which the GI50 is 26900 nM and the TGI is more than 100 µM.
